Measured values reported in patent US20240358693A1, “METHODS OF TREATING PAIN” (Aisa Pharma, Inc., priority 2023, published 2024).

Test system: participants with SSc-RP
Assay: Average severity of weekly RP attacks (VAS 0-10 cm scale)
Type: in vivo, human
Description: The absolute change in average severity of weekly RP attacks (VAS 0-10 cm scale) from baseline to the end of each Dosing Period was and will be a secondary outcome variable. The sponsor-developed participant-informed diary will be used to record data. Average severity of weekly RP attacks is defined as the total severity scores of RP attacks divided by total number of RP attacks within the last 7 days of each dosing period. Total severity scores of RP attacks during the last 7 days of screening period divided by the total number of RP attacks will be used as baseline for the analysis of all periods. The variable will be calculated similar to frequency data as before.

[1] = Cilnidipine 10 mg, n=1, Excluding Outliers, ITT Population - Part A
[2] = Cilnidipine 10 mg, n=1, ITT Population - Part A
[3] = Cilnidipine 10 mg, n=1, by Baseline RCS, first subgroup, ITT Population - Part A
[4] = Cilnidipine 10 mg, Excluding Outliers, ITT Population - Part A
[5] = Cilnidipine 10 mg, Excluding Outliers, by Baseline RCS, first subgroup, ITT Population - Part A
[6] = Cilnidipine 10 mg, ITT Population - Part A
[7] = Cilnidipine 10 mg, first Baseline RCS subgroup block (not named), ITT Part A
[8] = Cilnidipine 10 mg, first Baseline RCS subgroup block (not named), ITT Part A, score 0-10
[9] = Cilnidipine 20 mg, n=2, Excluding Outliers, ITT Population - Part A
[10] = Cilnidipine 20 mg, n=2, ITT Population - Part A
[11] = Cilnidipine 20 mg, n=2, by Baseline RCS, first subgroup, ITT Population - Part A
[12] = Cilnidipine 20 mg, Excluding Outliers, ITT Population - Part A
[13] = Cilnidipine 20 mg, Excluding Outliers, by Baseline RCS, first subgroup, ITT Population - Part A

`COCCOC(=O)C1=C(C)NC(C)=C(C(=O)OC/C=C/c2ccccc2)C1c1cccc([N+](=O)[O-])c1` (stereo not shown) [Cilnidipine, cilnidipine] was tested, and the “Average Severity (0-10) of Weekly Symptomatic RP Attacks, Mean” value [1] was 3.77, the “Average Severity (0-10) of Weekly Symptomatic RP Attacks, Median” value [1] was 3.77 and the “Average Severity of Weekly Symptomatic RP Attacks, Change from Baseline, Mean” value [1] was 0.28. For the same compound, the “Average Severity of Weekly Symptomatic RP Attacks, Change from Baseline, Median” value [1] was 0.28, the “Average Severity of Weekly Symptomatic RP Attacks, Percent Change from Baseline, Mean” value [1] was 8.05% and the “Average Severity of Weekly Symptomatic RP Attacks, Percent Change from Baseline, Median” value [1] was 8.05%. For the same compound, the “Average Severity (0-10) of Weekly Symptomatic RP Attacks, Mean” value [2] was 3.77, the “Average Severity (0-10) of Weekly Symptomatic RP Attacks, Median” value [2] was 3.77 and the “Average Severity of Weekly Symptomatic RP Attacks, Change from Baseline, Mean” value [2] was 0.28. For the same compound, the “Average Severity of Weekly Symptomatic RP Attacks, Change from Baseline, Median” value [2] was 0.28, the “Average Severity of Weekly Symptomatic RP Attacks, Percent Change from Baseline, Mean” value [2] was 8.05% and the “Average Severity of Weekly Symptomatic RP Attacks, Percent Change from Baseline, Median” value [2] was 8.05%. For the same compound, the “Average Severity (0-10) of Weekly Symptomatic RP Attacks, Mean” value [3] was 3.77, the “Average Severity (0-10) of Weekly Symptomatic RP Attacks, Median” value [3] was 3.77 and the “Average Severity of Weekly Symptomatic RP Attacks, Change from Baseline, Mean” value [3] was 0.28. For the same compound, the “Average Severity of Weekly Symptomatic RP Attacks, Change from Baseline, Median” value [3] was 0.28, the “Average Severity of Weekly Symptomatic RP Attacks, Percent Change from Baseline, Mean” value [3] was 8.05% and the “Average Severity of Weekly Symptomatic RP Attacks, Percent Change from Baseline, Median” value [3] was 8.05%. For the same compound, the “Average Severity of Weekly RP Attacks (All Attacks), Change from Baseline, Mean” value [4] was 0.02, the “Average Severity of Weekly RP Attacks (All Attacks), Change from Baseline, Median” value [4] was 0.02 and the “Average Severity of Weekly RP Attacks (All Attacks), Mean” value (“Average Severity … (All Attacks), Mean” below) [4] was 3.05. For the same compound, the “Average Severity of Weekly RP Attacks (All Attacks), Median” value (“Average Severity … (All Attacks), Median” below) [4] was 3.05, the “Average Severity of Weekly RP Attacks (All Attacks), Percent Change from Baseline, Mean” value [4] was 0.55% and the “Average Severity of Weekly RP Attacks (All Attacks), Percent Change from Baseline, Median” value [4] was 0.55%. For the same compound, the “Average Severity of Weekly Symptomatic RP Attacks (Mean)” value [5] was 3.77, the “Average Severity of Weekly Symptomatic RP Attacks (Median)” value [5] was 3.77 and the “Average Severity of Weekly Symptomatic RP Attacks, Change from Baseline, Mean” value [5] was 0.28. For the same compound, the “Average Severity of Weekly Symptomatic RP Attacks, Change from Baseline, Median” value [5] was 0.28, the “Average Severity of Weekly Symptomatic RP Attacks, Percent Change from Baseline, Mean” value [5] was 8.05% and the “Average Severity of Weekly Symptomatic RP Attacks, Percent Change from Baseline, Median” value [5] was 8.05%. For the same compound, the “Average Severity of Weekly RP Attacks (All Attacks), Change from Baseline, Mean” value [6] was 0.02, the “Average Severity of Weekly RP Attacks (All Attacks), Change from Baseline, Median” value [6] was 0.02 and the “Average Severity … (All Attacks), Mean” value [6] was 3.05. For the same compound, the “Average Severity … (All Attacks), Median” value [6] was 3.05, the “Average Severity of Weekly RP Attacks (All Attacks), Percent Change from Baseline, Mean” value [6] was 0.55% and the “Average Severity of Weekly RP Attacks (All Attacks), Percent Change from Baseline, Median” value [6] was 0.55%. The “Average Severity of Weekly RP Attacks (All Attacks), Percent Change from Baseline, Mean” value [7] was 0.55%, the “Average Severity of Weekly RP Attacks (All Attacks), Percent Change from Baseline, Median” value [7] was 0.55% and the “Average Severity of Weekly RP Attacks (All Attacks), Change from Baseline, Mean” value [8] was 0.02. The “Average Severity of Weekly RP Attacks (All Attacks), Change from Baseline, Median” value [8] was 0.02, the “Average Severity … (All Attacks), Mean” value [8] was 3.05 and the “Average Severity … (All Attacks), Median” value [8] was 3.05. For the same compound, the “Average Severity (0-10) of Weekly Symptomatic RP Attacks, Mean” value [9] was 2.30, the “Average Severity (0-10) of Weekly Symptomatic RP Attacks, Median” value [9] was 2.30 and the “Average Severity of Weekly Symptomatic RP Attacks, Change from Baseline, Mean” value [9] was −1.44. For the same compound, the “Average Severity of Weekly Symptomatic RP Attacks, Change from Baseline, Median” value [9] was −1.44, the “Average Severity of Weekly Symptomatic RP Attacks, Percent Change from Baseline, Mean” value [9] was −32.85% and the “Average Severity of Weekly Symptomatic RP Attacks, Percent Change from Baseline, Median” value [9] was −32.85%. The “Average Severity (0-10) of Weekly Symptomatic RP Attacks, Mean” value [10] was 2.30, the “Average Severity (0-10) of Weekly Symptomatic RP Attacks, Median” value [10] was 2.30 and the “Average Severity of Weekly Symptomatic RP Attacks, Change from Baseline, Mean” value [10] was −1.44. For the same compound, the “Average Severity of Weekly Symptomatic RP Attacks, Change from Baseline, Median” value [10] was −1.44, the “Average Severity of Weekly Symptomatic RP Attacks, Percent Change from Baseline, Mean” value [10] was −32.85% and the “Average Severity of Weekly Symptomatic RP Attacks, Percent Change from Baseline, Median” value [10] was −32.85%. For the same compound, the “Average Severity (0-10) of Weekly Symptomatic RP Attacks, Mean” value [11] was 2.30, the “Average Severity (0-10) of Weekly Symptomatic RP Attacks, Median” value [11] was 2.30 and the “Average Severity of Weekly Symptomatic RP Attacks, Change from Baseline, Mean” value [11] was −1.44. For the same compound, the “Average Severity of Weekly Symptomatic RP Attacks, Change from Baseline, Median” value [11] was −1.44, the “Average Severity of Weekly Symptomatic RP Attacks, Percent Change from Baseline, Mean” value [11] was −32.85% and the “Average Severity of Weekly Symptomatic RP Attacks, Percent Change from Baseline, Median” value [11] was −32.85%. The “Average Severity of Weekly RP Attacks (All Attacks), Change from Baseline, Mean” value [12] was −1.07, the “Average Severity of Weekly RP Attacks (All Attacks), Change from Baseline, Median” value [12] was −1.07 and the “Average Severity … (All Attacks), Mean” value [12] was 2.30. For the same compound, the “Average Severity … (All Attacks), Median” value [12] was 2.30, the “Average Severity of Weekly RP Attacks (All Attacks), Percent Change from Baseline, Mean” value [12] was −27.26% and the “Average Severity of Weekly RP Attacks (All Attacks), Percent Change from Baseline, Median” value [12] was −27.26%. The “Average Severity of Weekly Symptomatic RP Attacks (Mean)” value [13] was 2.30, the “Average Severity of Weekly Symptomatic RP Attacks (Median)” value [13] was 2.30 and the “Average Severity of Weekly Symptomatic RP Attacks, Change from Baseline, Mean” value [13] was −1.44. For the same compound, the “Average Severity of Weekly Symptomatic RP Attacks, Change from Baseline, Median” value [13] was −1.44, the “Average Severity of Weekly Symptomatic RP Attacks, Percent Change from Baseline, Mean” value [13] was −32.85% and the “Average Severity of Weekly Symptomatic RP Attacks, Percent Change from Baseline, Median” value [13] was −32.85%. For the same compound, the “Average Severity of Weekly RP Attacks (All Attacks), Change from Baseline, Mean” value (Cilnidipine 20 mg, ITT Population - Part A) was −1.07.
